Reference: patent US20230022032A1, “uPAR-TARGETED PHOTOTHERMAL OPTICAL PROBES FOR PHOTOTHERMAL THERAPY” (RIGSHOSPITALET, priority 2019, published 2023)
“Also recorded” adds a separate entry of the source.

Experiments:
[1] = In vitro heating of solutions under NIR laser irradiation (FLIR thermal camera); assay type: physicochemical; settings: NIR laser 2 W/cm^2; for maximum temperature in solution / temperature reached in solution: five minutes irradiation; for temperature reached in solution: 228 nmol; for maximum temperature of solution: irradiated for ten minutes
Experimental: The ability of ICG to generate high temperatures when irradiated with NIR light was measured in vitro. Different concentrations (228, 46, 23 and 12 nmol) of unconjugated ICG and ICG-Glu-Glu-AE105 in solution (0.2 g/ml (2-hydroxypropyl)-β-cyclodextrin in water and DMSO) were placed in a plastic cuvette under the laser beam. The laser was turned on for five minutes at 2 W/cm2 and the temperature measured with a thermal camera (FLIR T-440 camera), taking images every 30 seconds. The images were analyzed using the FLIR tools software.
In order to test the ability of ICG-Glu-Glu-AE105 to heat under NIR light, different concentrations of the compound in solution were placed in a plastic cuvette under a laser, at an intensity of 2 W/cm^2. The samples were then irradiated for ten minutes and the temperatures detected with a FLIR camera. For the highest concentration tested, 0.5 mg/ml, temperature increased fast in the first minutes and slower and in a more steady way after that, reaching a maximum temperature of 70.8±3° C. after ten minutes of irradiation. In contrast, lower concentrations reached their maximum peak fast; at five minutes for 0.1 mg/ml (62.7±1.6° C.), and around two to three minutes for 0.05 and 0.025 mg/ml (51.4±0.9 and 40.7±0.4° C. respectively). From that point, temperatures started to decrease most likely due to the irreversible degradation of ICG, which impedes heat generation (Wang et al., 2013).
Different concentrations of ICG in solution were irradiated as it was done for the conjugated dye. […] As expected, the maximum temperature was very similar to the one reached by 0.5 mg/ml of ICG-Glu-Glu-AE105, because a concentration of 0.5 mg/ml of ICG-Glu-Glu-AE105 corresponds to approximately 0.18 mg/ml of ICG alone. […] 0.05 mg/ml of ICG reached a maximum of 68.8±0.7° C. after seven minutes of irradiation, meanwhile 0.025 mg/ml of ICG peaked at three minutes at 50±0.2° C.
5 minutes irradiation trials were also made with reference to testing the ability of ICG-Glu-Glu-AE105 to heat under NIR light. See the set up with the compound in solution placed in a plastic cuvette under a laser beam (intensity 2 W/cm^2) in FIG. 1a. In this case the samples were irradiated for five minutes and the maximum temperatures were recorded with a FLIR camera. (FIG. 1b).
However, it was observed that the heat was mainly localized at the top of the sample and not evenly distributed throughout the solution. […] An important detail observed was the temperature decrease after reaching a certain peak, most likely due to the irreversible degradation of ICG, which impedes heat generation (Wang, Y.-G., Kim, H., Mun, S., Kim, D. & Choi, Y).

[2] = system: subcutaneous U-87 MG.luc2 tumors; assay: In vivo photothermal therapy (PTT) in subcutaneous mouse model of human glioblastoma; design: species or system mice; settings: for median survival: endpoint tumor 1000 mm^3; for highest temperature reached on tumor surface during PTT: 46 nmol injected four hours before PTT, 5 minutes NIR light at 2 W/cm^2
Experimental: The animal experiments were approved by the Danish Animal Welfare Council, Ministry of Justice. For the in vivo studies, U-87 MG.luc2 cells were cultured in Dulbecco's modified eagle medium supplemented with 10% fetal bovine serum and 1% penicillin-streptomycin (Thermo Fisher Scientific) at 37° C. and in 5% CO2. When cells reached 70% confluence, they were harvested and 2-3×10^6 cells in 100 μl of PBS were inoculated into the left flank of NMRI nude female mice (Janvier Labs, France). Animals were left to grow tumors until they reached 300 mm^3 (day −1). From then on, tumors were measured every other day with the use of a caliper, and tumor volume calculated through the formula: (length×width^2)*0.5. When tumors reached 1,000 mm^3, animals were euthanized.
When tumors reached 300 mm^3, mice were divided into 5 groups: ICG-Glu-Glu-AE105 group (mice injected with 46 nmol ICG-Glu-Glu-AE105 four hours before PTT, n=6); ICG group (mice injected with 46 nmol of unconjugated ICG four hours before PTT, n=4); Saline group (mice injected with saline four hours before PTT, n=4); sham group (mice injected with ICG-Glu-Glu-AE105 and no PTT, n=5) and a control group (no injection, no PTT, n=4). Animals were given analgesia (buprenorphin, 0.3 mg/ml) right before the laser treatment and every 6 to 8 hours until deemed necessary. For PTT, animals were anesthetized with sevoflurane as previously described and placed under the laser beam for five minutes at 2 W/cm^2. The tumors were swabbed with glycerol, an index-matching agent, prior to the laser treatment to facilitate light penetration (Deng et al. 2011, Vargas et al., 1999, Simon et al., 2019). The temperatures reached on the tumor surface were detected with a thermal camera, as described for the in vitro experiments.
Animals were bioluminescence-scanned a day before PTT, on PTT day and afterwards every other day until endpoints were reached, using IVIS Lumina XR and acquisition software Living Image (Caliper life Sciences, Hopkinton, Calif., USA). For these bioluminescence scans, luciferin was injected intraperitoneally ([…]) ten minutes before the scan. Animals were then anesthetized as described in the previous sections and placed in the prone position. The excitation filter was set to 710 nm and the emission filter was set on ICG.
The fluorescence scans were performed to detect ICG signal before and after PTT using the Fluobeam®800 NIR-camera as described for the accumulation study.
The Kaplan-Meier method was used to create the survival curves, and they were compared through the log-rank test. The maximum temperatures on tumor surface were compared using one-way ANOVA with Tukey's multiple comparisons test. The fluorescence emitted by ICG measured by the Fluobeam before and after PTT was compared using two-way ANOVA with Sidak's multiple comparisons test. The data was plotted in Prism7 and shown as mean±SEM.
After determining ideal dose and treatment schedule, different groups of mice were set up in order to test the ability of ICG-Glu-Glu-AE105 as a photothermal agent, capable of specifically ablating tumors in vivo. For this, mice were injected subcutaneously with U-87 MG.luc2 cells, a type of glioblastoma cells expressing luciferase, which allows for bioluminescence imaging when luciferin is injected. The bioluminescence signal, detected when the reactive luciferin was injected and oxidized by the enzyme luciferase, serves as a way to determine treatment success and follow tumor growth. […] The timeline for the experiments can be seen on FIG. 3. On baseline (day −1), mice underwent a pre-treatment bioluminescence scan. Following, on treatment day (day 0), mice were injected with either ICG-Glu-Glu-AE105, ICG alone, saline or not injected as it was the case for the control group. Approximately four hours after injection, all groups but sham and control were irradiated for 5 minutes with NIR light at 2 W/cm2, and the temperatures on tumor surface were measured with a FLIR camera. […]

[3] = system: U-87 MG.luc2 tumor tissue; assay: Tumor response ex vivo: H&E staining and uPAR immunohistochemistry of tumors resected 2 days after PTT; assay type: in vivo, mice; settings: n=2 per group
Experimental: Tumors were resected from n=2 mice per group two days after PTT. Tumors were fixated in formaldehyde overnight, and afterwards conserved in ethanol for their later embedding in paraffin. To perform the histology experiments, tumors were resected in 4 μm slices in a microtome (Thermo Scientific Microm HM355S). The tissue slides were left to dry for at least 1.5 hours, and then heated first at 40 and after at 60° C. Following, slides were submerged in HistoClear to achieve deparaffinization and rehydrated through a series of EtOH to water. For hematoxylin and eosin staining, the tissue slides were stained with hematoxylin for 5 minutes, rinsed and stained with eosin for 3 minutes.
For immunohistochemistry, the rehydrated tissue slides underwent heat-induced epitope retrieval (HIER) by covering the tissue slides with 250 mL citrate buffer (pH=6), and steaming them at 100° C. for 15 minutes. […]
Finally, tumors from mice receiving the different treatments (n=2) were resected at day 2 (after PTT) and H&E stained to confirm changes in tumor morphology due to treatment ex vivo (FIG. 7). […] Finally, macrophages were detected through CD68 staining to observe co-localization with uPAR signal, which could be noted, again, for all viable tumor regions.

[4] = 46 nmol four hours before PTT (5 minutes, 2 W/cm^2)

Row | SMILES | maximum temperature in solution ([1]; 12 nmol) | maximum temperature in solution ([1]; 23 nmol) | temperature reached in solution [1] | maximum temperature of solution ([1]; 0.025 mg/ml in solution) [°C] | maximum temperature of solution ([1]; 0.05 mg/ml in solution) [°C] | maximum temperature of solution ([1]; 0.1 mg/ml in solution) [°C] | median survival [2, 4] [days] | highest temperature reached on tumor surface during PTT [2] | maximum temperature of solution ([1]; 0.5 mg/ml in solution) [°C] | tumor growth after PTT ([2]; 46 nmol four hours before PTT, caliper measurement, compared to all the other groups) | complete tumor disappearance after PTT ([2]; n=6, followed until 60 days after PTT) | bioluminescence signal after PTT ([2]; ratio FLUX (day X/day -1), versus all the other groups) | median survival ([2]; sham group: injected, no laser treatment) [days] | H&E staining of tumor tissue [3] | uPAR signal in tumor tissue (immunological staining) [3]
1 | CC1(C)C(/C=C/C=C/C=C/C=C2\N(CCCCS(=O)(=O)O)c3ccc4ccccc4c3C2(C)C)=[N+](CCCCS(=O)(=O)[O-])c2ccc3ccccc3c21 [ICG, indocyanine green] | around 38 °C | below 50 °C | around 80 °C | 50±0.2 | 68.8±0.7 | 71.4±1.1 | 10 | around 45 °C |  |  |  |  |  |  | 
2 | CC(C)C[C@H](NC(=O)[C@H](Cc1ccc(O)cc1)NC(=O)C(CCCNC(=N)N)NC(=O)C(CO)NC(=O)C(Cc1ccccc1)NC(=O)[C@H](CC1CCCCC1)NC(=O)C(CC(=O)O)NC(=O)C(CCC(=O)O)NC(=O)C(CCC(=O)O)NC(=O)CCCCCN1\C(=C/C=C/C=C/C=C/C2=[N+](CCCCS(=O)(=O)[O-])c3ccc4ccccc4c3C2(C)C)C(C)(C)c2c1ccc1ccccc21)C(=O)N[C@@H](Cc1c[nH]c2ccccc12)C(=O)N[C@@H](CO)C(=O)O (stereo partly drawn) [ICG-Glu-Glu-AE105] |  |  | around 80 °C | 40.7±0.4 | 51.4±0.9 | 62.7±1.6 | 13.5 | around 52 °C | 70.8±3 | delay in tumor growth | one mouse even experienced complete tumor disappearance | reduced signal | 8 | high degree of cell death; also recorded: tissue disruption and hemorrhage | decrease in uPAR signal
